In the NIST ThermoML archive (doi:10.1021/je200820v):
Numbers after ± are expanded uncertainties.

Experiments:
[1] = excess molar enthalpy (molar enthalpy of mixing); xn = mol fraction of the nth substance listed; settings: 303.15 K, 101 kPa, Liquid, Calvet calorimetry
[2] = Liquid, Closed cell (Static) method

Which excess molar enthalpy ([1]; x1 = 0.0612) does the source give for `CCN(CC)CCN` [N,N-diethylethane-1,2-diamine] + CCCCCCC here?
Its excess molar enthalpy is 0.0679 ± 0.00287 kcal/mol.

What about the excess molar enthalpy ([1]; x1 = 0.1118) of the same molecule?
Its excess molar enthalpy is 0.115 ± 0.00478 kcal/mol.

What about the excess molar enthalpy ([1]; x1 = 0.1488) of the same molecule?
Its excess molar enthalpy is 0.143 ± 0.00598 kcal/mol.

And the excess molar enthalpy ([1]; x1 = 0.2038)?
The excess molar enthalpy was 0.179 ± 0.00741 kcal/mol.

What about the excess molar enthalpy ([1]; x1 = 0.2452) of the same molecule?
Its excess molar enthalpy is 0.201 ± 0.00813 kcal/mol.

And the excess molar enthalpy ([1]; x1 = 0.3051)?
The excess molar enthalpy was 0.222 ± 0.00908 kcal/mol.

What about the excess molar enthalpy ([1]; x1 = 0.4078) of the same molecule?
The excess molar enthalpy was 0.24 ± 0.0098 kcal/mol.

What about the excess molar enthalpy ([1]; x1 = 0.5068) of the same molecule?
Its excess molar enthalpy is 0.239 ± 0.0098 kcal/mol.

What about the excess molar enthalpy ([1]; x1 = 0.6156) of the same molecule?
The excess molar enthalpy was 0.216 ± 0.00884 kcal/mol.

What about the excess molar enthalpy ([1]; x1 = 0.7084) of the same molecule?
Its excess molar enthalpy is 0.183 ± 0.00741 kcal/mol.

What about the excess molar enthalpy ([1]; x1 = 0.7471) of the same molecule?
The excess molar enthalpy was 0.164 ± 0.00669 kcal/mol.

What about the excess molar enthalpy ([1]; x1 = 0.8058) of the same molecule?
The excess molar enthalpy was 0.135 ± 0.0055 kcal/mol.

What about the excess molar enthalpy ([1]; x1 = 0.8841) of the same molecule?
Its excess molar enthalpy is 0.0866 ± 0.00359 kcal/mol.

For `CCN(CC)CCN` [N,N-diethylethane-1,2-diamine], which “vapor or sublimation pressure” value ([2]; 273.15 K) is on record?
The value was 0.1291 ± 0.005 kPa.

What about the “vapor or sublimation pressure” value ([2]; 293.15 K) of the same molecule?
The value was 0.5288 ± 0.014 kPa.

What about the “vapor or sublimation pressure” value ([2]; 298.15 K) of the same molecule?
Its value is 0.7256 ± 0.019 kPa.

What about the “vapor or sublimation pressure” value ([2]; 303.15 K) of the same molecule?
The value was 0.9831 ± 0.025 kPa.

And the “vapor or sublimation pressure” value ([2]; 313.15 K)?
Its value is 1.741 ± 0.04 kPa.

What about the “vapor or sublimation pressure” value ([2]; 323.15 K) of the same molecule?
Its value is 2.957 ± 0.064 kPa.

And the “vapor or sublimation pressure” value ([2]; 333.15 K)?
Its value is 4.833 ± 0.1 kPa.

And the “vapor or sublimation pressure” value ([2]; 343.15 K)?
The value was 7.634 ± 0.16 kPa.

And the “vapor or sublimation pressure” value ([2]; 353.15 K)?
The value was 11.7 ± 0.24 kPa.

And the “vapor or sublimation pressure” value ([2]; 363.15 K)?
The value was 17.43 ± 0.36 kPa.

For `CCCCCCC` [heptane], which “vapor or sublimation pressure” value ([2]; 273.15 K) is on record?
The value was 1.536 ± 0.036 kPa.

And the “vapor or sublimation pressure” value ([2]; 293.15 K)?
Its value is 4.76 ± 0.1 kPa.

What about the “vapor or sublimation pressure” value ([2]; 298.15 K) of the same molecule?
The value was 6.135 ± 0.13 kPa.

What about the “vapor or sublimation pressure” value ([2]; 303.15 K) of the same molecule?
Its value is 7.829 ± 0.16 kPa.

And the “vapor or sublimation pressure” value ([2]; 313.15 K)?
Its value is 12.39 ± 0.26 kPa.

And the “vapor or sublimation pressure” value ([2]; 323.15 K)?
Its value is 18.96 ± 0.39 kPa.

And the “vapor or sublimation pressure” value ([2]; 333.15 K)?
The value was 28.14 ± 0.57 kPa.

And the “vapor or sublimation pressure” value ([2]; 343.15 K)?
The value was 40.64 ± 0.83 kPa.

And the “vapor or sublimation pressure” value ([2]; 353.15 K)?
Its value is 57.27 ± 1.2 kPa.

What about the “vapor or sublimation pressure” value ([2]; 363.15 K) of the same molecule?
Its value is 78.94 ± 1.6 kPa.
